Source: patent US20250136602A1, “PROCESS FOR THE PREPARATION OF A PURE AMORPHOUS FORM OF UBROGEPANT” (MSN LABORATORIES PRIVATE LIMITED, F&D CENTER, priority 2021, published 2025)

What was measured:
Format in all cases: physicochemical
[1] = Long term stability of amorphous Ubrogepant (HPLC purity, PXRD); conditions: long term stability at 25 ± 2° C. under 60 ± 5% humidity condition upto 6 months
Protocol: (§1) Eighth aspect of the first embodiment, the accelerated and long-term stability data of amorphous Ubrogepant of formula-1 is outlined in Table-1 as follows: […]
(§2) Ubrogepant and its related substances were analyzed by HPLC with the following chromatographic conditions: Apparatus: A liquid chromatographic system is to be equipped with variable wavelength UV-Detector and integrator; Column: Xbridge C18 150×4.6 mm, 3.5 μm Ghost-Buster column: Ghost buster 50 mm×4.6 mm; Wavelength: 210 nm; Column temperature: 25° C.; Injection volume: 5 μL; Elution: Gradient; Diluent: Acetonitrile: Water; Needle wash: Diluent.
(§3) The PXRD analysis of compound of the present invention was carried out by using BRUKER-Axis/D8 ADVANCE (DAVINCI) X-Ray diffractometer using CuKα radiation of wavelength 1.5406 A°.

[2] = Accelerated stability of amorphous Ubrogepant (HPLC purity, PXRD); conditions: accelerated stability at 40 ± 2° C. under 75 ± 5% humidity condition upto 6 months
Protocol: as §1, §2, §3

[3] = Polymorphic stress study of amorphous Ubrogepant
Protocol: Ninth aspect of the first embodiment of the present invention, amorphous Ubrogepant is also stable under below Polymorphic stress study conditions:
as §3

PXRD Result [1]: stable | Purity by HPLC [1]: >99.75% | PXRD Result [2]: stable | Purity by HPLC [2]: >99.75% | Result (polymorphic stability) ([3]; hygroscopicity analysis (75 ± 5% RH), 24 hours): stable | Result (polymorphic stability) ([3]; stress study under 10 tons pressure, 3 mins): stable | Result (polymorphic stability) ([3]; thermal analysis at 60° ± 2° C., 24 hours): stable | Result (polymorphic stability) ([3]; under UV light at 254 nm, 24 hours): stable
SMILES: C[C@@H]1[C@H](c2ccccc2)C[C@H](NC(=O)c2cnc3c(c2)C[C@@]2(C3)C(=O)Nc3ncccc32)C(=O)N1CC(F)(F)F [Amorphous Ubrogepant, (3′S)—N-((3S,5S,6R)-6-methyl-2-oxo-5-phenyl-1-(2,2,2-trifluoroethyl)piperidin-3-yl)-2′-oxo-1′,2′,5,7-tetrahydrospiro [cyclopenta[b]pyridine-6,3′-pyrrolo[2,3-b]pyridine]-3-carboxamide]
